Results taken from US12502434B2, “Compound comprising EZH2 inhibitor and E3 ligase binder and pharmaceutical composition for preventing or treating EZH2-associated disease comprising same as active ingredient” (DAEGU-GYEONGBUK MEDICAL INNOVATION FOUNDATION, priority 2019, dated 2025).

Target: T1, EZH2 protein in LS174T cells (Homo sapiens, UniProt Q15910)
T1 construct: endogenous in cells; host or cells: LS174T
Assay: Proteolytic effect in colorectal cancer cells (Western blotting)
Assay type: cell-based
Details: EZH2 protein, LS174T cells, 72 hours; for %, degradation at 1 uM: Western blotting
Procedure: After 72 hours of the treatment, the cells were collected and lysed using RIPA buffer (50 mM Tris, pH 7.5, 150 mM NaCl, 1% Triton X-100, 0.1% SDS, […], 0.5% deoxycholate, and protease inhibitor cocktail), followed by sonication (30 sec on/30 sec off, 5 cycles) to prepare a cell lysate.

T1 sequence (Q15910 whole entry): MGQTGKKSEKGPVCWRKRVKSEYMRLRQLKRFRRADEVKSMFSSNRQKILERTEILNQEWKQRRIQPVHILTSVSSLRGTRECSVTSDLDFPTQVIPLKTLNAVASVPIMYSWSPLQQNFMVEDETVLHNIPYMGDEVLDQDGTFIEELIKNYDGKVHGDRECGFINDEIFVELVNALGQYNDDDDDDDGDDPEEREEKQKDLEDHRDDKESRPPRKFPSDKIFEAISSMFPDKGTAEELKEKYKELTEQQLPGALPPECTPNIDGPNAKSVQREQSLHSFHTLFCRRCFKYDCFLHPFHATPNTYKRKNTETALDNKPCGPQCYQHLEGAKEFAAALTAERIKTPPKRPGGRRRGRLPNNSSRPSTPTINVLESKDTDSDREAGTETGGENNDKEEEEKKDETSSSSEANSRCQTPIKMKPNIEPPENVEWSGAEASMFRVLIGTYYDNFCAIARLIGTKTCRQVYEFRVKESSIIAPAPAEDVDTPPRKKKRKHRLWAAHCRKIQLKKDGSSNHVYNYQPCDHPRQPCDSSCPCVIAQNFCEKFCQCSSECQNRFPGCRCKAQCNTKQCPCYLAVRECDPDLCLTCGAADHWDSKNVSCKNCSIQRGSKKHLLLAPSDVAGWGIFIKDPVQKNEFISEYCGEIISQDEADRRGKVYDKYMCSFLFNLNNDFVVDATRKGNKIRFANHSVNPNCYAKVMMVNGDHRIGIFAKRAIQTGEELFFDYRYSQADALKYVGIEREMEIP
T1 sequence (O75530 whole entry partner): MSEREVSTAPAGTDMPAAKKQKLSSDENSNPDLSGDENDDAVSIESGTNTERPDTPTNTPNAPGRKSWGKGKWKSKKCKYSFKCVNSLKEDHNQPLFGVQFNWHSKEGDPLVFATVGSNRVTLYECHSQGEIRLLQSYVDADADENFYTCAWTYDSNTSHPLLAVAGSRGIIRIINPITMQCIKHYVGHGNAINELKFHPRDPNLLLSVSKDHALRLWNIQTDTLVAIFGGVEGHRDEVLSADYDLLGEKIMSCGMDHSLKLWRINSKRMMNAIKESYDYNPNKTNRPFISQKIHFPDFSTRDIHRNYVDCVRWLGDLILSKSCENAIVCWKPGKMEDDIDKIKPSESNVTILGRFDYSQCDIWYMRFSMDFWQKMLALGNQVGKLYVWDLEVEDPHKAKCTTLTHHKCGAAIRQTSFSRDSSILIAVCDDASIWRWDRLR
T1 sequence (Q15022 whole entry partner): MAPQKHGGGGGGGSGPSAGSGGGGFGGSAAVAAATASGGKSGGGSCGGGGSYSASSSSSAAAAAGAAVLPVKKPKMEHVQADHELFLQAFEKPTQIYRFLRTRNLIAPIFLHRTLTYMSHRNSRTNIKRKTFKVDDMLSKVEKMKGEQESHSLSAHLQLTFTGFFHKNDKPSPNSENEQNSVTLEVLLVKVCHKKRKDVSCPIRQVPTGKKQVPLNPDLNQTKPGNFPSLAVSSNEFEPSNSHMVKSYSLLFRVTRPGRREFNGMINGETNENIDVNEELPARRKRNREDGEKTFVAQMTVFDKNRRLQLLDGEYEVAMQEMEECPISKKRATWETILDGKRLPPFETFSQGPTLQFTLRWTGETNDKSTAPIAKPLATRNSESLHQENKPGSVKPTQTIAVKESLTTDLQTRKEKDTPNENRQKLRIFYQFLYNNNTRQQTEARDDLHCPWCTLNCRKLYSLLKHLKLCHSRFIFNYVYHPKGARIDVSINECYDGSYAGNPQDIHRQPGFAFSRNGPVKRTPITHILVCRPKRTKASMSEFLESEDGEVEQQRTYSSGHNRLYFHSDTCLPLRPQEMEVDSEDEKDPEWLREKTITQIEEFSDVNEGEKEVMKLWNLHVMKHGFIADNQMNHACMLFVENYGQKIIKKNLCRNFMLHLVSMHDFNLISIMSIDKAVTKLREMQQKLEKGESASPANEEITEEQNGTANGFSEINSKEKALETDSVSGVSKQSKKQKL

CCN(c1cc(-c2ccc(CN3CCN(Cc4cn(CCOCCNc5cccc6c5C(=O)N(C5CCC(=O)NC5=O)C6=O)nn4)CC3)cc2)cc(C(=O)NCc2c(C)cc(C)[nH]c2=O)c1C)C1CCOCC1 (stereo not drawn) [Example 24, N-((4,6-dimethyl-2-oxo-1,2-dihydropyridine-3-yl)methyl)-4′-((4-((1-(2-(2-((2-(2,6-dioxopiperidine-3-yl)-1,3-dioxoisoindoline-4-yl)amino)ethoxy)ethyl)-1H-1,2,3-triazole-4-yl)methyl)piperazine-1-yl)methyl)-5-(ethyl(tetrahydro-2H-pyran-4-yl)amino)-4-methyl-[1,1′-biphenyl]-3-carboxamide]
Grade (percent value of the protein degradation when treated with 1 μM): D (<25%) | %, degradation at 1 uM: 0%

CCN(c1cc(-c2ccc(CN3CCN(CC(=O)NCCCCNc4cccc5c4C(=O)N(C4CCC(=O)NC4=O)C5=O)CC3)cc2)cc(C(=O)NCc2c(C)cc(C)[nH]c2=O)c1C)C1CCOCC1 (stereo not drawn) [Example 3, N-((4,6-dimethyl-2-oxo-1,2-dihydropyridine-3-yl)methyl)-4′-((4-(2-((4-((2-(2,6-dioxopiperidine-3-yl)-1,3-dioxoisoindoline-4-yl)amino)butyl)amino)-2-oxoethyl)piperazine-1-yl)methyl)-5-(ethyl(tetrahydro-2H-pyran-4-yl)amino)-4-methyl-[1,1′-biphenyl]-3-carboxamide]
Grade (percent value of the protein degradation when treated with 1 μM): D (<25%) | %, degradation at 1 uM: 13.61%

CCN(c1cc(-c2ccc(CN3CCN(CC(=O)NCCCCCOCCCOCCC(=O)N[C@H](C(=O)N4C[C@H](O)C[C@H]4C(=O)NCc4ccc(-c5scnc5C)cc4)C(C)(C)C)CC3)cc2)cc(C(=O)NCc2c(C)cc(C)[nH]c2=O)c1C)C1CCOCC1 [Example 43, (2S,4R)-1-((S)-2-(tert-butyl)-19-(4-((3′-(((4,6-dimethyl-2-oxo-1,2-dihydropyridine-3-yl)methyl)carbamoyl)-5′-(ethyl(tetrahydro-2H-pyran-4-yl)amino)-4′-methyl-[1,1′-biphenyl]-4-yl)methyl)piperazine-1-yl)-4,18-dioxo-7,11-dioxa-3,17-diazanonadecanoyl)-4-hydroxy-N-(4-(4-methylthiazole-5-yl)benzyl)pyrrolidine-2-carboxamide]
Grade (percent value of the protein degradation when treated with 1 μM): B (50-75%) | %, degradation at 1 uM: 67.12%

CCN(c1cc(-c2ccc(CN3CCN(C(=O)CNCCCCNc4cccc5c4C(=O)N(C4CCC(=O)NC4=O)C5=O)CC3)cc2)cc(C(=O)NCc2c(C)cc(C)[nH]c2=O)c1C)C1CCOCC1 (stereo not drawn) [Example 13, N-((4,6-dimethyl-2-oxo-1,2-dihydropyridine-3-yl)methyl)-4′-((4-((4-((2-(2,6-dioxopiperidine-3-yl)-1,3-dioxoisoindoline-4-yl)amino)butyl)glycyl)piperazine-1-yl)methyl)-5-(ethyl(tetrahydro-2H-pyran-4-yl)amino)-4-methyl-[1,1′-biphenyl]-3-carboxamide]
Grade (percent value of the protein degradation when treated with 1 μM): C (25-50%) | %, degradation at 1 uM: 29.35%

CCN(c1cc(-c2ccc(CN3CCN(CC(=O)NCCNc4cccc5c4C(=O)N(C4CCC(=O)NC4=O)C5=O)CC3)cc2)cc(C(=O)NCc2c(C)cc(C)[nH]c2=O)c1C)C1CCOCC1 (stereo not drawn) [Example 1, N-((4,6-dimethyl-2-oxo-1,2-dihydropyridine-3-yl)methyl)-4′-((4-(2-((2-((2-(2,6-dioxopiperidine-3-yl)-1,3-dioxoisoindoline-4-yl)amino)ethyl)amino)-2-oxoethyl)piperazine-1-yl)methyl)-5-(ethyl(tetrahydro-2H-pyran-4-yl)amino)-4-methyl-[1,1′-biphenyl]-3-carboxamide]
Grade (percent value of the protein degradation when treated with 1 μM): D (<25%) | %, degradation at 1 uM: 8.15%

CCN(c1cc(-c2ccc(CN3CCN(CC(=O)NCCOCCCN[C@H](C(=O)N4C[C@H](O)C[C@H]4C(=O)NCc4ccc(-c5scnc5C)cc4)C(C)(C)C)CC3)cc2)cc(C(=O)NCc2c(C)cc(C)[nH]c2=O)c1C)C1CCOCC1 [Example 40, (2S,4R)-1-((S)-2-((3-(2-(2-(4-((3′-(((4,6-dimethyl-2-oxo-1,2-dihydropyridine-3-yl)methyl)carbamoyl)-5′-(ethyl(tetrahydro-2H-pyran-4-yl)amino)-4′-methyl-[1,1′-biphenyl]-4-yl)methyl)piperazine-1-yl)acetamido)ethoxy)propyl)amino)-3,3-dimethylbutanoyl)-4-hydroxy-N-(4-(4-methylthiazole-5-yl)benzyl)pyrrolidine-2-carboxamide]
Grade (percent value of the protein degradation when treated with 1 μM): D (<25%) | %, degradation at 1 uM: 0%

CCN(c1cc(-c2ccc(CN3CCN(CC(=O)NCCOCCCOc4cccc5c4C(=O)N(C4CCC(=O)NC4=O)C5=O)CC3)cc2)cc(C(=O)NCc2c(C)cc(C)[nH]c2=O)c1C)C1CCOCC1 (stereo not drawn) [Example 18, N-((4,6-dimethyl-2-oxo-1,2-dihydropyridine-3-yl)methyl)-4′-((4-(2-((2-(3-((2-(2,6-dioxopiperidine-3-yl)-1,3-dioxoisoindoline-4-yl)oxy)propoxy)ethyl)amino)-2-oxoethyl)piperazine-1-yl)methyl)-5-(ethyl(tetrahydro-2H-pyran-4-yl)amino)-4-methyl-[1,1′-biphenyl]-3-carboxamide]
Grade (percent value of the protein degradation when treated with 1 μM): D (<25%) | %, degradation at 1 uM: 16.74%

CCN(c1cc(-c2ccc(CN3CCN(CCOCCCCCCNc4cccc5c4C(=O)N(C4CCC(=O)NC4=O)C5=O)CC3)cc2)cc(C(=O)NCc2c(C)cc(C)[nH]c2=O)c1C)C1CCOCC1 (stereo not drawn) [Example 19, N-((4,6-dimethyl-2-oxo-1,2-dihydropyridine-3-yl)methyl)-4′-((4-(2-((6-((2-(2,6-dioxopiperidine-3-yl)-1,3-dioxoisoindoline-4-yl)amino)hexyl)oxy)ethyl)piperazine-1-yl)methyl)-5-(ethyl(tetrahydro-2H-pyran-4-yl)amino)-4-methyl-[1,1′-biphenyl]-3-carboxamide]
Grade (percent value of the protein degradation when treated with 1 μM): D (<25%) | %, degradation at 1 uM: 9.07%

CCN(c1cc(-c2ccc(CN3CCN(CC(=O)NCCCCCCNc4cccc5c4C(=O)N(C4CCC(=O)NC4=O)C5)CC3)cc2)cc(C(=O)NCc2c(C)cc(C)[nH]c2=O)c1C)C1CCOCC1 (stereo not drawn) [Example 22, N-((4,6-dimethyl-2-oxo-1,2-dihydropyridine-3-yl)methyl)-4′-((4-(2-((6-((2-(2,6-dioxopiperidine-3-yl)-3-oxoisoindoline-4-yl)amino)hexyl)amino)-2-oxoethyl)piperazine-1-yl)methyl)-5-(ethyl(tetrahydro-2H-pyran-4-yl)amino)-4-methyl-[1,1′-biphenyl]-3-carboxamide]
Grade (percent value of the protein degradation when treated with 1 μM): D (<25%) | %, degradation at 1 uM: 0%
